According to PubChem BioAssay (NCI):
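96-well plates; 48 h exposure; 5 concentrations. Endpoints by linear interpolation between flanking doses. Not reached: highest tested concentration assigned. GI50 marks 50% less growth. TGI is the concentration that stops growth completely.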

Columns and labels:
Test in all cases: growth of human tumour cells (NCI), 48 h
COLO 205 colon = test system: COLO 205 colon
KM12 colon = test system: KM12 colon
SF-295 CNS = test system: SF-295 CNS
SK-MEL-5 melanoma = test system: SK-MEL-5 melanoma
SNB-75 CNS = test system: SNB-75 CNS
SR leukemia = test system: SR leukemia
SW-620 colon = test system: SW-620 colon
UACC-257 melanoma = test system: UACC-257 melanoma
UO-31 renal = test system: UO-31 renal
T-47D breast = test system: T-47D breast

SMILES	TGI (COLO 205 colon)	TGI (KM12 colon)	TGI (SF-295 CNS)	TGI (SK-MEL-5 melanoma)	TGI (SNB-75 CNS)	TGI (SR leukemia)	TGI (SW-620 colon)	TGI (UACC-257 melanoma)	TGI (UO-31 renal)	GI50 (COLO 205 colon)	GI50 (KM12 colon)	GI50 (SF-295 CNS)	GI50 (SK-MEL-5 melanoma)	GI50 (SNB-75 CNS)	GI50 (SR leukemia)	GI50 (SW-620 colon)	GI50 (UACC-257 melanoma)	GI50 (UO-31 renal)	GI50 (T-47D breast)	TGI (T-47D breast)
Cc1c2c(c(C)c3c1[nH]c1ccccc13)CN(C)CC2	28.6 µM	33.9 µM	31.7 µM	26.1 µM	28.8 µM	87.8 µM	28.6 µM	31.4 µM	53 µM											
O=C1OC(=O)C2C3C=CC(C12)C1C2C=CC2C31 (stereo not drawn)	> 100 µM	> 100 µM	> 100 µM			> 100 µM	> 100 µM	> 100 µM												
CCn1c2ccccc2c2c(-c3ccccc3)cc3c(c21)C(=O)N(c1ccccc1)C3=O	> 100 µM	> 100 µM	> 100 µM	> 100 µM	> 100 µM	> 100 µM	> 100 µM	> 100 µM	> 100 µM											
NC(=O)NC1C(C(=O)O)N(Cc2ccccc2)C(=O)N1Cc1ccccc1 (stereo not drawn)	> 100 µM	> 100 µM	> 100 µM	> 100 µM	> 100 µM	> 100 µM	> 100 µM	> 100 µM	> 100 µM											
CC(=O)c1ccc(NC(=O)COC(=O)c2cccc3c(=O)c4ccccc4[nH]c23)cc1	> 100 µM	> 100 µM	49.2 µM	> 100 µM	31.5 µM	> 100 µM	> 100 µM	> 100 µM	> 100 µM											
COc1c(N2CCN(CN3C(=O)C(=O)c4cc(Cl)ccc43)C(C)C2)c(F)cc2c(=O)c(C(=O)O)cn(C3CC3)c12 (stereo not drawn)	> 100 µM	> 100 µM	> 100 µM	34.8 µM	> 100 µM	> 100 µM	75.8 µM	72.9 µM	> 100 µM	80.6 µM	35.2 µM	91.7 µM	15.6 µM	> 100 µM	4.51 µM	14.2 µM	27.7 µM	> 100 µM		
CN(CCCCCl)P(=O)(OCc1ccc([N+](=O)[O-])o1)OCC1OC(n2cnc([N+](=O)[O-])c2N)C(O)C1O (stereo not drawn)	> 100 µM	> 100 µM	> 100 µM	> 100 µM	> 100 µM	> 100 µM	> 100 µM	> 100 µM	> 100 µM	> 100 µM	90.7 µM	> 100 µM	37 µM	> 100 µM	0.924 µM	> 100 µM	> 100 µM	> 100 µM		
Cc1nc2cc(Nc3ccccc3C(=O)O)ccc2s1	> 100 µM	> 100 µM	> 100 µM	> 100 µM	> 100 µM	> 100 µM	> 100 µM		> 100 µM											
Cn1cc(C(=O)c2ccccc2)cc(C(=O)c2ccccc2)c1=O	> 100 µM	> 100 µM	> 100 µM	> 100 µM	> 100 µM	> 100 µM	> 100 µM	> 100 µM	> 100 µM											
O=C1CN(c2cccc(Cl)c2)C(=O)CN1NCNN1CC(=O)N(c2cccc(Cl)c2)CC1=O	> 100 µM	> 100 µM	> 100 µM	> 100 µM	> 100 µM	> 100 µM	> 100 µM	> 100 µM	> 100 µM											
Cc1cccc2c3c(sc12)C(c1ccc(F)cc1)C(C#N)=C(N)O3 (stereo not drawn)	1.29 µM	11.1 µM	0.329 µM	1.38 µM	0.0936 µM	20.2 µM	14.2 µM	36.8 µM	15.5 µM	0.28 µM	0.064 µM	0.0284 µM	0.111 µM	0.0236 µM	0.0462 µM	0.044 µM	10.6 µM	0.286 µM		
NC(=S)N1N=C2c3ccccc3CC[C@H]2[C@@H]1c1ccc(Cl)cc1	34.8 µM	> 100 µM	> 100 µM			> 100 µM	> 100 µM	95 µM	66.8 µM											
COc1ccc(NC(=O)CC(=O)n2nc(C)c(N=Nc3ccccc3C(=O)O)c2C)cc1	> 100 µM	> 100 µM	> 100 µM	> 100 µM	78.8 µM		> 100 µM	> 100 µM	> 100 µM											
O=c1c2cc3c(cc2c2cccc4c2n1CCC4)OCO3	> 100 µM	> 100 µM	> 100 µM	> 100 µM	> 100 µM	91.3 µM	> 100 µM	> 100 µM	> 100 µM											
COc1ccc(-c2csc(NC(=O)CN3CCN(c4cc5c(cc4F)c(=O)c(C(=O)O)cn5C4CC4)CC3)n2)cc1		> 100 µM	15.9 µM		34.2 µM	> 100 µM	> 100 µM		> 100 µM		3.37 µM	2.73 µM		3.31 µM	2.96 µM	3.9 µM		3.37 µM		
Cl.Fc1c[c-]c(-c2ccccn2)c(F)c1.[Pt].c1ccc([PH+](C[PH+](c2ccccc2)c2ccccc2)c2ccccc2)cc1		1 µM			0.781 µM		0.494 µM	0.829 µM			0.276 µM			0.183 µM		0.197 µM	0.269 µM		0.135 µM	1.02 µM

SMILES	TGI (COLO 205 colon)	TGI (KM12 colon)	TGI (SF-295 CNS)	TGI (SK-MEL-5 melanoma)	TGI (SNB-75 CNS)	TGI (SR leukemia)	TGI (SW-620 colon)	TGI (UACC-257 melanoma)	TGI (UO-31 renal)	GI50 (COLO 205 colon)	GI50 (KM12 colon)	GI50 (SF-295 CNS)	GI50 (SK-MEL-5 melanoma)	GI50 (SNB-75 CNS)	GI50 (SR leukemia)	GI50 (SW-620 colon)	GI50 (UACC-257 melanoma)	GI50 (UO-31 renal)	GI50 (T-47D breast)	TGI (T-47D breast)
COc1ccc(C(=O)c2sc3nc(-c4cccs4)ccc3c2N)cc1OC	> 100 µM	> 100 µM	18.2 µM	5.28 µM	> 100 µM	22.7 µM	> 100 µM	> 100 µM	> 100 µM	5.35 µM	4.42 µM	3.07 µM	2.01 µM	4.06 µM	3.26 µM	5.07 µM	8.51 µM	4.56 µM		
CC(C)(C)N/N=C(\C(=O)NC1=C(Cl)C(=O)c2ccccc2C1=O)C1C=CCS1(=O)=O (stereo not drawn)	30.2 µM	> 100 µM	25.1 µM		24 µM		> 100 µM	26.5 µM	37.7 µM											37.8 µM
Cc1ccc(NC(=O)CCc2n[nH]c(=S)o2)cc1	> 100 µM	> 100 µM	> 100 µM	> 100 µM	> 100 µM	> 100 µM	> 100 µM	> 100 µM	> 100 µM											
N#CC1=C(O)NC(O)=C(C#N)C1c1ccc(C2C(C#N)=C(O)NC(O)=C2C#N)cc1	63.1 µM	> 100 µM	> 100 µM	> 100 µM	> 100 µM		> 100 µM	> 100 µM	> 100 µM											
c1ccc(OCc2nnc3n2N=C(c2ccccc2)CS3)cc1		> 100 µM	> 100 µM	> 100 µM	95.1 µM	> 100 µM	> 100 µM	> 100 µM	> 100 µM											
O=c1[nH]cnc2c(COCCO)c[nH]c12	> 100 µM	> 100 µM	> 100 µM	> 100 µM	> 100 µM	> 100 µM	> 100 µM	> 100 µM	> 100 µM											
OCCN(CCO)c1cccc(N(CCO)CCO)n1	> 100 µM	> 100 µM	> 100 µM	> 100 µM	> 100 µM	> 100 µM	> 100 µM	> 100 µM	> 100 µM											
CCCCNc1ccc(Nc2ccccc2)cc1	11.7 µM	32.6 µM	64.4 µM	10.1 µM	61.9 µM		> 100 µM		43.1 µM	2.77 µM	4.02 µM	4.63 µM	2.78 µM	8.46 µM		5.06 µM		14.4 µM	1.65 µM	47 µM
COc1cc(C(C)O)c[n+](CCC2CNc3ccccc32)c1 (stereo not drawn)	> 100 µM	> 100 µM	> 100 µM	> 100 µM	> 100 µM	> 100 µM	> 100 µM	> 100 µM	> 100 µM											
CCn1c(CCl)nc2c1C(=O)c1ccccc1C2=O		3.23 µM	3.54 µM	2.84 µM	3.62 µM		2.75 µM	3.36 µM												4.21 µM
COc1cccc(N2C(=O)C3C4C=C5c6ccccc6N(c6ccccc6)C5(C3C2=O)[C@H]2C(=O)N(c3cccc(OC)c3)C(=O)[C@@H]42)c1 (stereo partly drawn)	> 100 µM	> 100 µM	> 100 µM	> 100 µM	> 100 µM	> 100 µM	> 100 µM	> 100 µM	> 100 µM											
COC(=O)Cc1cc(=O)[nH]c2c1C(=O)CCC2		> 100 µM	> 100 µM	> 100 µM		> 100 µM	> 100 µM	> 100 µM	> 100 µM											
Cc1ccc(S(=O)(=O)N/N=C/C(C)C)cc1	> 100 µM	> 100 µM	> 100 µM	> 100 µM	> 100 µM		> 100 µM	> 100 µM	> 100 µM											
N#Cc1cccc(C=NC23CC4CC(CC(C4)C2)C3)c1	> 100 µM	> 100 µM	> 100 µM			> 100 µM	> 100 µM	> 100 µM	> 100 µM											
COc1ccc(C(=O)C#Cc2c[nH]c(=O)[nH]c2=O)cc1	24.8 µM	> 52.6 µM	96.2 µM	27.9 µM	45.5 µM	8.38 µM	26.7 µM	27.4 µM	35.2 µM											
C=C(C(=C)P(=S)(C(C)C)C(C)C)P(=S)(C(C)C)C(C)C	> 100 µM	> 100 µM	> 100 µM	> 100 µM	> 100 µM	> 100 µM	> 100 µM	> 100 µM	> 100 µM											
